Holding throughout (assay): Kinase Selectivity Assay (CEREP, HTRF)
Common to all, as to format: biochemical

The target of one assay is T1, CDC2/CDK1 (cycB) (Homo sapiens, UniProt P06493).
T1 construct: CEREP, France (ran the assays)
As to conditions: read-out: % Inhibition at 10 μM Concentration, CDC2/CDK1. As for the experimental part: (§1) kinase, ROCK2, RSK2, Src kinase, Syk, and TRKA. The % Inhibition was determined

Another assay deals with T2, CSK (Homo sapiens, UniProt P41240).
T2 construct: CEREP, France (ran the assays)
As to conditions: read-out: % Inhibition at 10 μM Concentration, CSK. As for the experimental part:
as §1

In the next assay the target is T3, CaMK4 (Homo sapiens, UniProt Q16566).
T3 construct: CEREP, France (ran the assays)
T3 sequence (Q16566 1-473): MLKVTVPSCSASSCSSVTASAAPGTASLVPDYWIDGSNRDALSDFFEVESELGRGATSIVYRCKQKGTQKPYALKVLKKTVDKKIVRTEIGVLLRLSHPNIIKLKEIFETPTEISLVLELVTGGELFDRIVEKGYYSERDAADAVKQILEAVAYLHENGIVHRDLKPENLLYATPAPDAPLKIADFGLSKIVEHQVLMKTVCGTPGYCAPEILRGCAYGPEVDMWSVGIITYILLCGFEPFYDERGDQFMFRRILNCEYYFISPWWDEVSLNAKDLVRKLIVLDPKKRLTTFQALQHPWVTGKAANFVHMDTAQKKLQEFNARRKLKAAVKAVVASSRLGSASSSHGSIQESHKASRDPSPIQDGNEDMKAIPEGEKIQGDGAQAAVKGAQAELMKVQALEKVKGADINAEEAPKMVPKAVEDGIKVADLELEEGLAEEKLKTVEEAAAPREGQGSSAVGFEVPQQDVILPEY
Conditions: read-out: % Inhibition at 10 μM Concentration, CaMK4. Here is the method: as §1

In a further assay the target is T4, FGFR4 kinase (Homo sapiens, UniProt P22455).
T4 construct: CEREP, France (ran the assays)
As to conditions: read-out: % Inhibition at 10 μM Concentration, FGFR4. As for the experimental part: as §1

The next assay deals with T5, FLT-1 kinase (VEGFR1) (Homo sapiens, UniProt P17948).
T5 construct: CEREP, France (ran the assays)
T5 sequence (P17948 27-1338): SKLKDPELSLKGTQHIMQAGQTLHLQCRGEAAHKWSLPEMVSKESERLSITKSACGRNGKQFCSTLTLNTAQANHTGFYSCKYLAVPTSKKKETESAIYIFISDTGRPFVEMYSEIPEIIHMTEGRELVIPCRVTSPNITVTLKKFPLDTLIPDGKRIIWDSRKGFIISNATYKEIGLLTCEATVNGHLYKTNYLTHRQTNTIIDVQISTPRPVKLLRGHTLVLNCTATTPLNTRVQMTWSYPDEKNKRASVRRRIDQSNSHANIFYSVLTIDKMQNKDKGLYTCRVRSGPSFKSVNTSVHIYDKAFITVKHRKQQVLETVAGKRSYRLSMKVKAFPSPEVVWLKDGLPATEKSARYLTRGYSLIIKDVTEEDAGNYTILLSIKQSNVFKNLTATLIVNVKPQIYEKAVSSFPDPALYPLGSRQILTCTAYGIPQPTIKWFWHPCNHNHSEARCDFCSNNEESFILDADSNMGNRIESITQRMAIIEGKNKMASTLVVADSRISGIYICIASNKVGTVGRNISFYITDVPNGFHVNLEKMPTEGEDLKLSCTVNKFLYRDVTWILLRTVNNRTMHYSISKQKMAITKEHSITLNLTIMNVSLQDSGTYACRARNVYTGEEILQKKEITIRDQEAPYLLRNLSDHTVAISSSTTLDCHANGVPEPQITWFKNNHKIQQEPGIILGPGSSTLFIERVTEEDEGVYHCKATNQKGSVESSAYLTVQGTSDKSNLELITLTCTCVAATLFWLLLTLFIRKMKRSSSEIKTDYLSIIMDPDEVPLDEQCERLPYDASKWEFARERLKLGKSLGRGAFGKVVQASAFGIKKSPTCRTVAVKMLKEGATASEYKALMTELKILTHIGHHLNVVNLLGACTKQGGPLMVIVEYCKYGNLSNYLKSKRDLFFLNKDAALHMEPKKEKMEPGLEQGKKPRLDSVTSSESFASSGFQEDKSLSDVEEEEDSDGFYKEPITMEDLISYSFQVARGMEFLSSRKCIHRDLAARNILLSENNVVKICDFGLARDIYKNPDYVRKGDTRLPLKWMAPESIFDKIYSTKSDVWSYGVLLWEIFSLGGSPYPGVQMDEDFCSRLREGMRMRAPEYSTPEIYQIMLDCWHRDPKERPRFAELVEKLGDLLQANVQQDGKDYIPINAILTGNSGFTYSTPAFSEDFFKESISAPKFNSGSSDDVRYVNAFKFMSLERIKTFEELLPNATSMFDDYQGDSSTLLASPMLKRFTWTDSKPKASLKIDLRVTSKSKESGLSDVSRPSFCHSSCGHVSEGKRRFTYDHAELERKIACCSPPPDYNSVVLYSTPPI
Conditions: read-out: % Inhibition at 10 μM Concentration, FLT-1 (VEGFR1). Here is the method:
as §1

For a further assay, the target named is T6, FLT-3 kinase (Homo sapiens, UniProt P36888).
T6 sequence (P36888 27-993): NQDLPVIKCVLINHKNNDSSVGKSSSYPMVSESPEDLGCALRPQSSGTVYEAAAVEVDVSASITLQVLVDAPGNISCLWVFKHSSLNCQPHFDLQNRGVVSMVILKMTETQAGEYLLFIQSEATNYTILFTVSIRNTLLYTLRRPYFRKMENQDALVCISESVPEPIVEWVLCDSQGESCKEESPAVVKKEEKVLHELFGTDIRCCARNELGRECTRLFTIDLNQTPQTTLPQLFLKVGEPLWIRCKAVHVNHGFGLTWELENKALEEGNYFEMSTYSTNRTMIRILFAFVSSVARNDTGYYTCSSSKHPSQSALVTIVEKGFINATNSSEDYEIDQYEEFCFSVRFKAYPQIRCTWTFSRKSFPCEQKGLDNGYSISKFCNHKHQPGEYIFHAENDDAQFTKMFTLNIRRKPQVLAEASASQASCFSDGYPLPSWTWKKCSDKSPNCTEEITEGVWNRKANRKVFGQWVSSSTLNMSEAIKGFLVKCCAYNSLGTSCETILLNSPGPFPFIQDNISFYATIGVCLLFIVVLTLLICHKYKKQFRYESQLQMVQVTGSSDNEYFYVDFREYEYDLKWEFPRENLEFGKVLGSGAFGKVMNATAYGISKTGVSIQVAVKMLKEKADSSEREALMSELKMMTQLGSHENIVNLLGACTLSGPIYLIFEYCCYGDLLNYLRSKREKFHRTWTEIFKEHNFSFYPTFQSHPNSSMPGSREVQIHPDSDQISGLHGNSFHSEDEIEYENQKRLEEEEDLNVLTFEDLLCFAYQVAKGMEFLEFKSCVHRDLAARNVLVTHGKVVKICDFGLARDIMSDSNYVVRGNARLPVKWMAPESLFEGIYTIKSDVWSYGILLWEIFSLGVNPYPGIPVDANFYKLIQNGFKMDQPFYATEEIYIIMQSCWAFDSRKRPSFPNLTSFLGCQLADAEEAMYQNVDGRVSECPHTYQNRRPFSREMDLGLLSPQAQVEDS
As to conditions: read-out: % Inhibition at 10 μM Concentration, FLT-3. As for the experimental part: as §1

For the next assay, the target named is Fyn kinase (Homo sapiens, UniProt P06241). As to conditions: read-out: % Inhibition at 10 μM Concentration, Fyn. Here is the method:
as §1

For a further assay, the target named is JNK 2 (Homo sapiens, UniProt P45984). Conditions: read-out: % Inhibition at 10 μM Concentration, JNK 2. Here is the method: as §1
JNK 2, sequence (P45984 whole entry): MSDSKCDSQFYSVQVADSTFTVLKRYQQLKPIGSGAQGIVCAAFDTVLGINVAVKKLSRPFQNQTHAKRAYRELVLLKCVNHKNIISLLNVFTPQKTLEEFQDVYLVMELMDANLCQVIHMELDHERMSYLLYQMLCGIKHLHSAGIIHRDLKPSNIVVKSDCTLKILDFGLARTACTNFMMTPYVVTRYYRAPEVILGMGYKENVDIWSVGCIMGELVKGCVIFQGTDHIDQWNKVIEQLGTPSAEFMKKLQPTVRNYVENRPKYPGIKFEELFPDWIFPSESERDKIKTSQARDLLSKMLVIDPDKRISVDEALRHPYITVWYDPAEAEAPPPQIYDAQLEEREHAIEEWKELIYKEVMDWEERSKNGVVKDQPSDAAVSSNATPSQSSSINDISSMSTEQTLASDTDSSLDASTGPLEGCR
A further assay deals with PDGFRb kinase (Homo sapiens, UniProt P09619). As to conditions: read-out: % Inhibition at 10 μM Concentration, PDGFRbeta. As for the experimental part: as §1
A further assay has as its target PKCa (Homo sapiens, UniProt P17252). Conditions: read-out: % Inhibition at 10 μM Concentration, PKCalpha. As for the experimental part:
as §1

Another assay addresses PKCb2 (Homo sapiens, UniProt P05771). As to conditions: read-out: % Inhibition at 10 μM Concentration, PKCbeta 2. As for the experimental part:
as §1

For the next assay, the target named is PKCg (Homo sapiens, UniProt P05129). Conditions: read-out: % Inhibition at 10 μM Concentration, PKCgamma. Here is the method: as §1
The target in a further assay is Ret (Homo sapiens, UniProt P07949). Conditions: read-out: % Inhibition at 10 μM Concentration, Ret. Here is the method:
as §1

The next assay concerns the target T7, c-Met kinase (Homo sapiens, UniProt P08581).
T7 construct: CEREP, France (ran the assays)
Conditions: read-out: % Inhibition at 10 μM Concentration, c-Met. Here is the method: as §1

T7 sequence (P08581 25-1390): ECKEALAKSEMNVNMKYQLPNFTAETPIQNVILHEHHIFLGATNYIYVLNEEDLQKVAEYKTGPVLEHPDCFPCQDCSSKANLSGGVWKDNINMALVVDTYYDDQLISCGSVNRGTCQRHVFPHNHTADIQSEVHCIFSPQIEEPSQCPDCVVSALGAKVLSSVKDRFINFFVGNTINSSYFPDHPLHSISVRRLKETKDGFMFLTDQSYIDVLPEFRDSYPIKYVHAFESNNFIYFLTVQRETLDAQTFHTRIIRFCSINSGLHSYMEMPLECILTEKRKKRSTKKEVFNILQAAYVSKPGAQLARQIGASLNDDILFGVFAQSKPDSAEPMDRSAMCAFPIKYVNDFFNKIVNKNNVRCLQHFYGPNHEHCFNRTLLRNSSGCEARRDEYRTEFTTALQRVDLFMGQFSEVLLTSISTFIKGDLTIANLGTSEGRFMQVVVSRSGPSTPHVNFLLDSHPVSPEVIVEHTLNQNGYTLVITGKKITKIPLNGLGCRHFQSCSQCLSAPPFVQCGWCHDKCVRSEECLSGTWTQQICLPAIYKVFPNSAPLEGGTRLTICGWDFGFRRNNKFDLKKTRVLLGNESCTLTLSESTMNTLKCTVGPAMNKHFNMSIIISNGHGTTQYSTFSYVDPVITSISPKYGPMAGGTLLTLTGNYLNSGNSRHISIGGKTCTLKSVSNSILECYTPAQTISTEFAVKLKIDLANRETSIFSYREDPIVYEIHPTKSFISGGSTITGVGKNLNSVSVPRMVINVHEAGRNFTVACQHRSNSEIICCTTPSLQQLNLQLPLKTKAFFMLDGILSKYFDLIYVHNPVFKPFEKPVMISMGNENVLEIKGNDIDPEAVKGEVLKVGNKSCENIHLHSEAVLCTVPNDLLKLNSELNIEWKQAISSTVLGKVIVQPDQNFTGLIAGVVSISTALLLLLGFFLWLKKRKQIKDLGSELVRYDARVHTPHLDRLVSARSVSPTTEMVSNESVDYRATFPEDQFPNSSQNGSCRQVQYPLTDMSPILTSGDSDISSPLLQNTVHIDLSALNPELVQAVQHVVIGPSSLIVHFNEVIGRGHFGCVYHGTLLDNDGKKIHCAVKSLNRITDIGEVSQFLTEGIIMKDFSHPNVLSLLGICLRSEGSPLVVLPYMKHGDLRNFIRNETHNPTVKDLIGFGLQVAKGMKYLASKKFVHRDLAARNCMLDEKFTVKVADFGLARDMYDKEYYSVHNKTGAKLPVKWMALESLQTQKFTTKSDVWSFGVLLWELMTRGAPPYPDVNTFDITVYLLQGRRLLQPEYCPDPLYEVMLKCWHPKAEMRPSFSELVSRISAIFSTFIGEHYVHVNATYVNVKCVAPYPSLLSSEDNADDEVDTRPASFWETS
PKCb2, sequence (P05771 1-673 isoform P05771-2): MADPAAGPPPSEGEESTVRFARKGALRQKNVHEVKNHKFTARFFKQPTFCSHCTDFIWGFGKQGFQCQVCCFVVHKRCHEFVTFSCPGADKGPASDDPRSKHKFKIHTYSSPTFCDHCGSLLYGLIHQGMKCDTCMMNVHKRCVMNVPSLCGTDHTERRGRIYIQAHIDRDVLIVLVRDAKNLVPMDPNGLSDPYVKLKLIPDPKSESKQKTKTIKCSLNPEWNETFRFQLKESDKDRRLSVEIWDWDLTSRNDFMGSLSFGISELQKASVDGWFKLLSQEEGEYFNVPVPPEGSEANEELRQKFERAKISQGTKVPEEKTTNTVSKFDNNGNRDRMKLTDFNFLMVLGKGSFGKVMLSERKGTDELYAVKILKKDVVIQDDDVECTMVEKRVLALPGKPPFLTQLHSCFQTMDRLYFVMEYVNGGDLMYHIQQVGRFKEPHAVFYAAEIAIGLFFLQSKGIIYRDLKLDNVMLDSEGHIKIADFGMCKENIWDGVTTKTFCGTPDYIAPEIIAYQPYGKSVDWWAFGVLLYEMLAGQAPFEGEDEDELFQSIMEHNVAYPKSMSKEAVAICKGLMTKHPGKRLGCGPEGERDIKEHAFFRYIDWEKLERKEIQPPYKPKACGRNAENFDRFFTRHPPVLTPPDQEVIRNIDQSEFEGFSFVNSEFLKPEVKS
Fyn kinase, sequence (P06241 whole entry): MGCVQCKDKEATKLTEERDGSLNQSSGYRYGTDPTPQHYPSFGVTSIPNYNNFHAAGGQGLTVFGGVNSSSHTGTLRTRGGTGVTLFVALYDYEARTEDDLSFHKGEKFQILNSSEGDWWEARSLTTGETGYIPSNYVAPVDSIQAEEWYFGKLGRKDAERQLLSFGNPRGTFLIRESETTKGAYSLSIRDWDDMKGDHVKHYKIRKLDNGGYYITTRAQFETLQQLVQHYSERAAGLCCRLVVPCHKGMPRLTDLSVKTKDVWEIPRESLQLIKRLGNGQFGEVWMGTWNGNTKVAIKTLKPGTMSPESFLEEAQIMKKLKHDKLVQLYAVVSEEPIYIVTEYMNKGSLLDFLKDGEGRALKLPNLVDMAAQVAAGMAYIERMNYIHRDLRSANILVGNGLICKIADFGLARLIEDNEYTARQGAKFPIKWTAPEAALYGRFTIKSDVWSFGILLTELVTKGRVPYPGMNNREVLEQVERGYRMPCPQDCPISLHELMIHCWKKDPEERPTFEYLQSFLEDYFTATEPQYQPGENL

In the case of `COc1ccc2c(c1)C(=Cc1ccc3c(-c4ccc(N5CCN(C)CC5)nc4)n[nH]c3c1)C(=O)N2` (mixture of isomers) [Example A97, (E and Z)-5-methoxy-3-((3-(6-(4-methylpiperazin-1-yl)pyridin-3-yl)-1H-indazol-6-yl)methylene)indolin-2-one], the inhibition at 10 µM at CDC2/CDK1 (cycB) was 15%; on CSK it was 51%; at CaMK4 it was 2%; on FGFR4 kinase it was 30%; at FLT-1 kinase (VEGFR1), 73%; at FLT-3 kinase, 100%. Further, the inhibition at 10 µM on Fyn kinase was 13%; at JNK 2, 14%; at PDGFRb kinase, 0%; on PKCa, 9%; at PKCb2, 37%; at PKCg, 0%. Moreover, the figures for the inhibition at 10 µM on Ret and at c-Met kinase were 93% and 28%, respectively.
With `O=C1Nc2ccccc2/C1=C\c1ccc2[nH]nnc2c1` [Example A1, (E)-3-((1H-benzo[d][1,2,3]triazol-5-yl)methylene)indolin-2-one], the inhibition at 10 µM on CDC2/CDK1 (cycB) stood at 2%; on CSK it was 8%; on CaMK4, 3%; on FGFR4 kinase it was 18%; at FLT-1 kinase (VEGFR1) it was 0%; at FLT-3 kinase, 93%. Also, the inhibition at 10 µM was found to be 24% at Fyn kinase; 13% at JNK 2; 46% on PDGFRb kinase; 9% at PKCa; 0% at PKCb2; 9% at PKCg. For the same molecule, the inhibition at 10 µM on Ret was 67%; at c-Met kinase it was -20%.
`O=C1Nc2ccccc2/C1=C\c1ccc2c(/C=C/c3ccccc3Cl)n[nH]c2c1` [Example A60, (E)-3-((3-((E)-2-chlorostyryl)-1H-indazol-6-yl)methylene)indolin-2-one]: the inhibition at 10 µM on CDC2/CDK1 (cycB) was 18%; at CSK, 17%; at CaMK4 it was -15%; on FGFR4 kinase, 6%; on FLT-1 kinase (VEGFR1) it was 42%; at FLT-3 kinase it was 10%. Also, the inhibition at 10 µM at Fyn kinase is 70%; at JNK 2 it was 3%; at PDGFRb kinase, 2%; at PKCa, -1%; at PKCb2, 4%; on PKCg it was 3%. Further, the inhibition at 10 µM at Ret was found to be 33%; at c-Met kinase, 0%.
On to `O=C1Nc2ccccc2/C1=C\c1ccc2cn[nH]c2c1` [Example A5, (E)-3-((1H-indazol-6-yl)methylene)indolin-2-one], for which the inhibition at 10 µM was 9% at CDC2/CDK1 (cycB); 5% on CSK; 26% at CaMK4; -4% on FGFR4 kinase; 16% at FLT-1 kinase (VEGFR1); 76% on FLT-3 kinase. The inhibition at 10 µM at Fyn kinase was 5%; at JNK 2, 14%; at PDGFRb kinase, 19%; at PKCa, 0%; at PKCb2, 2%; on PKCg it was -6%. The values for the inhibition at 10 µM at Ret and on c-Met kinase were 41% and 2%, respectively.
Take `O=C1Nc2ccccc2C1=Cc1ccc2c(/C=C/c3ccccn3)n[nH]c2c1` (mixture of isomers) [Example A41, (E and Z)-3-((3-((E)-2-(pyridin-2-yl)vinyl)-1H-indazol-6-yl)methylene)indolin-2-one]: the inhibition at 10 µM at CDC2/CDK1 (cycB) was found to be 62%; at CSK, 86%; at CaMK4, 27%; on FGFR4 kinase, 38%; at FLT-1 kinase (VEGFR1), 99%; at FLT-3 kinase it was 100%. Also, the inhibition at 10 µM turned out to be 91% at Fyn kinase; 52% at JNK 2; 100% on PDGFRb kinase; 2% on PKCa; 12% at PKCb2; 0% on PKCg. Further, the results for the inhibition at 10 µM on Ret and on c-Met kinase were 98% and 35%, respectively.

For the origin of these results see patent US8765748B2, “Indazolyl, benzimidazolyl, benzotriazolyl substituted indolinone derivatives as kinase inhibitors useful in the treatment of cancer” (University Health Network, priority 2007, dated 2014).
